Results taken from US7790884B2, “Acylaminopiperidine compound” (Astellas Pharma Inc., priority 2006, dated 2010).
Counter-ions that a name gives are not always drawn.

Biological target: T1, human CCR4 (Homo sapiens, UniProt P51679)
T1 construct: expressed in transfected cells; membrane fraction used
T1 sequence (P51679 1-360): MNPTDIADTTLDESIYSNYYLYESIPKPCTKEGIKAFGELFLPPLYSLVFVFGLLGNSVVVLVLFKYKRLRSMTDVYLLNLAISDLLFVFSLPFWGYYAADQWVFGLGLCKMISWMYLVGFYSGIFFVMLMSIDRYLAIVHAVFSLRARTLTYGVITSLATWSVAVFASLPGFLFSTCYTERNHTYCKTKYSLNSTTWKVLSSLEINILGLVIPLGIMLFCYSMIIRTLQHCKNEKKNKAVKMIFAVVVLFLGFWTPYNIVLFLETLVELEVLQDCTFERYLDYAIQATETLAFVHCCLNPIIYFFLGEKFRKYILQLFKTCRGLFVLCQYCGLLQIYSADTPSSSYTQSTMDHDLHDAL
Test: [35S]GTPγS binding test via CCR4 (human MDC-stimulated, human CCR4 expressing cell line membrane fraction)
Format: biochemical
Conditions: membrane fraction of human CCR4 expressing B300-16 cells, room temperature 1 hour 30 minutes, read-out: inhibitory activity value (IC50)
Experimental: Action for [^35S]GTPγS Binding Test Via CCR4 (1) Preparation of Human CCR4 Expressing Cell Line A vector (contains a neomycin-resistance gene) in which human CCR4 gene was inserted into downstream of the EF-1α promoter was prepared and transfected into a mouse pre B cell line B300-16 cells by electroporation. These cells were cultured using a G-418-supplemented medium, and a single cell line capable of producing human CCR4 constantly and stably was obtained by the limiting dilution method. (2) Preparation of Human CCR4 Expressing Cell Line Membrane Fraction The human CCR4 expressing cells were recovered, washed with PBS and then suspended in a lysis buffer (10 mM HEPES pH 7.5, 2 mM EDTA, proteinase inhibitor). After allowing the suspension to stand on ice for 15 minutes, the cells were disintegrated using a homogenizer and centrifuged (2000 rpm, 10 min, 4° C.). The supernatant was further subjected to ultracentrifugation (22 K, 30 min, 4° C.), and then the pellet was suspended in PBS and used in the subsequent test. (3) GTPγS Binding Test In a reaction mixture liquid containing 20 mM of HEPES pH 7.05, 100 mM of NaCl, 5 mM of MgCl2, 2 μM of GDP, human MDC, […] of [^35S]GTPγS, 1 mg of wheat germ agglutinin SPA beads and 1 μg of the human CCR4 expressing cell line membrane fraction, respective concentration of the test compound was allowed to undergo the reaction at room temperature for 1 hour and 30 minutes, and the radioactivity was measured.

Row | SMILES | IC50
1 | CCN(C(=O)[C@H]1CCCN1)C1CCN(c2nc(Nc3ccc(Cl)cc3F)c3ccc(C#N)cc3n2)CC1 [Example 28] | ≤ 100 nM
2 | CN(C(=O)[C@@H]1CCCN1)C1CCN(c2nc(Nc3ccc(Cl)cc3F)c3cc(F)ccc3n2)CC1 [Example 29] | ≤ 100 nM
3 | CN(C(=O)[C@H]1CCCN1)C1CCN(c2nc(Nc3ccc(Cl)cc3F)c3cc(F)ccc3n2)CC1 [Example 30] | ≤ 100 nM
4 | CN(C(=O)[C@@H]1CCCN1C)C1CCN(c2nc(Nc3ccc(Cl)cc3F)c3cc(F)ccc3n2)CC1 [Example 31] | ≤ 100 nM
5 | CN(C(=O)[C@H]1CCCN1C)C1CCN(c2nc(Nc3ccc(Cl)cc3F)c3cc(F)ccc3n2)CC1 [Example 32] | ≤ 100 nM
6 | CCN(C(=O)[C@H]1CCCN1)C1CCN(c2nc(Nc3ccc(Cl)cc3F)c3cc(F)ccc3n2)CC1 [Example 33] | ≤ 100 nM
7 | COc1cc2c(Nc3ccc(Cl)cc3F)nc(N3CCC(N(C)C(=O)[C@H]4CCCN4)CC3)nc2cc1F [Example 35] | ≤ 100 nM
8 | COc1cc2c(Nc3ccc(Cl)cc3F)nc(N3CCC(N(C)C(=O)[C@@H]4CCCN4C)CC3)nc2cc1F [Example 36] | ≤ 100 nM
9 | COc1cc2c(Nc3ccc(Cl)cc3F)nc(N3CCC(N(C)C(=O)[C@H]4CCCN4C)CC3)nc2cc1F [Example 37] | ≤ 100 nM
10 | CN(C(=O)[C@@H]1CCCN1)C1CCN(c2nc(Nc3ccc(Cl)cc3)c3cc(F)ccc3n2)CC1 [Example 38] | ≤ 100 nM
11 | CN(C(=O)[C@H]1CCCN1)C1CCN(c2nc(Nc3ccc(Cl)cc3)c3cc(F)ccc3n2)CC1 [Example 39] | ≤ 100 nM
12 | CCN(C(=O)[C@H]1CCCN1)C1CCN(c2nc(Nc3ccc(Cl)cc3)c3cc(F)ccc3n2)CC1 [Example 40] | ≤ 100 nM
13 | CN(C(=O)[C@@H]1CCCN1C)C1CCN(c2nc(Nc3ccc(Cl)cc3)c3cc(F)ccc3n2)CC1 [Example 41] | ≤ 100 nM
14 | CN(C(=O)[C@@H]1CCCN1)C1CCN(c2nc(Nc3ccc(Cl)cc3)c3cc(Br)ccc3n2)CC1 [Example 43] | ≤ 100 nM
15 | CN(C(=O)[C@H]1CCCN1)C1CCN(c2nc(Nc3ccc(Cl)cc3)c3cc(Br)ccc3n2)CC1 [Example 44] | ≤ 100 nM
16 | CCN(C(=O)[C@H]1CCCN1)C1CCN(c2nc(Nc3ccc(Cl)cc3)c3cc(Br)ccc3n2)CC1 [Example 45] | ≤ 100 nM

Row | SMILES | IC50
17 | CN(C(=O)[C@@H]1CCCN1C)C1CCN(c2nc(Nc3ccc(Cl)cc3)c3cc(Br)ccc3n2)CC1 [Example 46] | ≤ 100 nM
18 | CN(C(=O)[C@H]1CCCN1C)C1CCN(c2nc(Nc3ccc(Cl)cc3)c3cc(Br)ccc3n2)CC1 [Example 47] | ≤ 100 nM
19 | CCN(C(=O)[C@@H]1CCCN1)C1CCN(c2nc(Nc3ccc(Cl)cc3F)c3cc(F)ccc3n2)CC1 [Example 48] | ≤ 100 nM
20 | CCN(C(=O)[C@@H]1CCCN1C)C1CCN(c2nc(Nc3ccc(Cl)cc3F)c3cc(F)ccc3n2)CC1 [Example 49] | ≤ 100 nM
21 | CCN(C(=O)[C@H]1CCCN1C)C1CCN(c2nc(Nc3ccc(Cl)cc3F)c3cc(F)ccc3n2)CC1 [Example 50] | ≤ 100 nM
22 | CCN(C(=O)[C@@H]1CCCN1C)C1CCN(c2nc(Nc3ccc(Cl)cc3)c3cc(F)ccc3n2)CC1 [Example 51] | ≤ 100 nM
23 | CCN(C(=O)[C@@H]1CCCN1)C1CCN(c2nc(Nc3ccc(Cl)cc3)c3cc(F)ccc3n2)CC1 [Example 53] | ≤ 100 nM
24 | CN(C(=O)[C@@H]1CCCN1)C1CCN(c2nc(Nc3ccc(Cl)cc3F)c3cc(Br)ccc3n2)CC1 [Example 54] | ≤ 100 nM
25 | CCN(C(=O)[C@@H]1CCCN1)C1CCN(c2nc(Nc3ccc(Cl)cc3F)c3cc(Br)ccc3n2)CC1 [Example 55] | ≤ 100 nM
26 | CCN(C(=O)[C@H]1CCCN1)C1CCN(c2nc(Nc3ccc(Cl)cc3F)c3cc(Br)ccc3n2)CC1 [Example 56] | ≤ 100 nM
27 | CCN(C(=O)[C@@H]1CCCN1C)C1CCN(c2nc(Nc3ccc(Cl)cc3F)c3cc(Br)ccc3n2)CC1 [Example 57] | ≤ 100 nM
28 | CCN(C(=O)[C@H]1CCCN1C)C1CCN(c2nc(Nc3ccc(Cl)cc3F)c3cc(Br)ccc3n2)CC1 [Example 58] | ≤ 100 nM
29 | CCN(C(=O)[C@@H]1CCCN1C)C1CCN(c2nc(Nc3ccc(Cl)cc3)c3cc(Br)ccc3n2)CC1 [Example 59] | ≤ 100 nM
30 | CCN(C(=O)[C@H]1CCCN1C)C1CCN(c2nc(Nc3ccc(Cl)cc3)c3cc(Br)ccc3n2)CC1 [Example 60] | ≤ 100 nM
31 | COc1cc2nc(N3CCC(N(C)C(=O)[C@@H]4CCCN4)CC3)nc(Nc3ccc(Cl)cc3F)c2cc1F [Example 61] | ≤ 100 nM
32 | COc1cc2nc(N3CCC(N(C)C(=O)[C@H]4CCCN4)CC3)nc(Nc3ccc(Cl)cc3F)c2cc1F [Example 62] | ≤ 100 nM

Continued, values first:

Row | IC50 | SMILES
33 | ≤ 100 nM | COc1cc2nc(N3CCC(N(C)C(=O)[C@@H]4CCCN4)CC3)nc(Nc3ccc(Cl)cc3F)c2cc1OC [Example 2, N-(1-{4-[(4-chloro-2-fluorophenyl)amino]-6,7-dimethoxyquinazolin-2-yl}piperidin-4-yl)-N-methyl-L-prolinamide dihydrochloride]
34 | ≤ 100 nM | CN(C(=O)[C@@H]1CCCN1)C1CCN(c2nc(Nc3ccc(Cl)cc3F)c3ccc(C#N)cc3n2)CC1 [Example 5]
35 | ≤ 100 nM | COc1cc2nc(N3CCC(N(C)C(=O)[C@@H]4CCCN4C)CC3)nc(Nc3ccc(Cl)cc3F)c2cc1F [Example 6]
36 | ≤ 100 nM | CN(C(=O)[C@@H]1CCCN1C)C1CCN(c2nc(Nc3ccc(Cl)cc3F)c3cc(Br)ccc3n2)CC1 [Example 7]
37 | ≤ 100 nM | CCN(C(=O)[C@@H]1CCCN1)C1CCN(c2nc(Nc3ccc(Cl)cc3F)c3cc(OC)c(OC)cc3n2)CC1 [Example 9]
38 | ≤ 100 nM | COc1cc2nc(N3CCC(N(C)C(=O)[C@H]4CCCN4)CC3)nc(Nc3ccc(Cl)cc3F)c2cc1OC [Example 10]
39 | ≤ 100 nM | CCN(C(=O)[C@H]1CCCN1)C1CCN(c2nc(Nc3ccc(Cl)cc3F)c3cc(OC)c(OC)cc3n2)CC1 [Example 12]
40 | ≤ 100 nM | COc1cc2nc(N3CCC(N(C(=O)[C@@H]4CCCN4)C4CC4)CC3)nc(Nc3ccc(Cl)cc3F)c2cc1OC [Example 13]
41 | ≤ 100 nM | CN(C(=O)[C@@H]1CCCN1C)C1CCN(c2nc(Nc3ccc(Cl)cc3F)c3ccc(C#N)cc3n2)CC1 [Example 15]
42 | ≤ 100 nM | COc1cc2nc(N3CCC(N(C(=O)[C@@H]4CCCN4)C4CCC4)CC3)nc(Nc3ccc(Cl)cc3F)c2cc1OC [Example 16]
43 | ≤ 100 nM | COc1cc2nc(N3CCC(N(C(=O)[C@H]4CCCN4)C4CCC4)CC3)nc(Nc3ccc(Cl)cc3F)c2cc1OC [Example 17]
44 | ≤ 100 nM | COc1cc2nc(N3CCC(N(C)C(=O)[C@H]4CCCN4C)CC3)nc(Nc3ccc(Cl)cc3F)c2cc1OC [Example 19]
45 | ≤ 100 nM | COc1cc2nc(N3CCC(N(C(=O)[C@@H]4CCCN4C)C4CC4)CC3)nc(Nc3ccc(Cl)cc3F)c2cc1OC [Example 20]
46 | ≤ 100 nM | COc1cc2nc(N3CCC(N(C(=O)[C@H]4CCCN4C)C4CC4)CC3)nc(Nc3ccc(Cl)cc3F)c2cc1OC [Example 21]
47 | ≤ 100 nM | CN(C(=O)[C@H]1CCCN1C)C1CCN(c2nc(Nc3ccc(Cl)cc3F)c3cc(Br)ccc3n2)CC1 [Example 22]
48 | ≤ 100 nM | CCN(C(=O)[C@H]1CCCN1C)C1CCN(c2nc(Nc3ccc(Cl)cc3F)c3ccc(C#N)cc3n2)CC1 [Example 24]
49 | ≤ 100 nM | CCN(C(=O)[C@H]1CCCN1C)C1CCN(c2nc(Nc3ccc(Cl)cc3F)c3cc(OC)c(OC)cc3n2)CC1 [Example 26]
50 | ≤ 100 nM | CN(C(=O)[C@H]1CCCN1)C1CCN(c2nc(Nc3ccc(Cl)cc3F)c3cc(Br)ccc3n2)CC1 [Example 27]
